Measurements taken from US11535680B2, “Targeting metastasis stem cells through a fatty acid receptor (CD36)” (FUNDACIÓ INSTITUT DE RECERCA BIOMÈDICA (IRB BARCELONA), priority 2015, dated 2022).

How the values were obtained:
SCC25 tumour cells = test: Transplants of palmitic acid-treated OSCC cells; assay type: in vivo, mouse; details: cells treated in culture before transplant
Experimental: NOD scid gamma (NSG) (NOD.Cg-Prkdc^scid Il2rg^tm1Wjl/SzJ) mice were purchased from Charles River and crossed in-house. All mice were housed under a regimen of 12 h light/12 h dark cycles and SPF conditions, and all procedures were evaluated and approved by the CEEA (Ethical Committee for Animal Experimentation) from the Government of Catalunya. For establishing patient-derived tumour cells, tumours were implanted subcutaneously into NOD scid gamma mice immediately after tumour resection from the patient. Once the tumours had grown, they were collected, disaggregated, and tumour cells were FACS sorted and cultured as described below. For 5-bromo-2-deoxyuridine (BrdU) labelling experiments, mice were injected intraperitoneally with a single dose of 100 μg g^−1 BrdU (Invitrogen) and then analysed at 24 h. SCC intra-tongue injection was performed as previously described (Oskarsson et al., 2014; Nieman et al., 2011). Briefly, mice were anesthetized by intraperitoneal injection with a mixture of 50 mg per kg of ketamine and 0.5 mg per kg of medetomidin, and SCC cells resuspended in 30 μl PBS were injected into each mouse tongue with a BD ultra-fine 6 mm needle. For intravenous cell injection, mice were anesthetized with continuous administration of isofluorane gas and were injected by retro-orbital injection with 100,000 cells in 100 μl PBS. Mice were monitored for the luciferase bioluminescent signal immediately after injection (T0) and once weekly thereafter with a Xenogen IVIS Imaging System-100 (Caliper Life Sciences). Briefly, animals were injected by retro-orbital injection with 50 μl of D-luciferin (Promega) diluted in 1×PBS at 5 mg ml^−1. Continuous administration of isofluorane gas was provided to ensure anesthetizing animals during imaging. Data was quantified with the Living Image software version 4.4 (Caliper Life Sciences). Quantifications were calculated with unsaturated pixels. Color scale minimum and maximum values are shown in pictures.
All cells were cultured in a humidified incubator at 37° C. with 5% CO2. […]

OSCC cells = OSCC cells exposed in culture to palmitic acid, CD36+ cells by flow cytometry; assay type: cell-based, human; details: 2 days, 0.4 mM palmitic acid
Experimental: All cells were cultured in a humidified incubator at 37° C. with 5% CO2. SCC-25 (ATCC^R CRL-168™) and patient-derived cells (VDH-00, VDH-01 and VDH-02) were grown in keratinocyte serum-free media (KSFM, GIBCO) supplemented with 5 μg ml^−1 penicillin/streptomycin, 0.025 mg ml^−1 bovine pituitary extract and 0.2 μg ml^−1 of hEGF. JHU-029 cells (The Johns Hopkins University) were grown in RPMI (GIBCO) supplemented with 5 μg ml^−1 penicillin/streptomycin and 10% foetal bovine serum (FBS; GIBCO). FaDu (ATCC^R HTB-43™) and Detroit (ATCC^R CCL138™) cells were grown in EMEM (LONZA) supplemented with 5 μg ml^−1 penicillin/streptomycin and 10% FBS (GIBCO). MCF-7 cells (ATCC^r HTB-22™) were grown in EMEM (LONZA) supplemented with 5 mg ml^−1 penicillin/streptomycin, 0.01 mg ml^−1 human recombinant insulin and 10% FBS (GIBCO). The 501mel human cell line (kindly provided by Dr. Claudia Wellbrock, Manchester Cancer Research Centre, The University of Manchester, UK) was grown in DMEM supplemented with 5 mg ml^−1 penicillin/streptomycin and 10% FBS (GIBCO). HNACFS (Head and Neck tumour associated fibroblasts) were grown in DMEM supplemented with 5 mg ml^−1 penicillin/streptomycin, 10% FBS (GIBCO) and 1× insulin transferrin selenium G supplement (Invitrogen). OP9 cells were cultured and differentiated to adipocytes as previously described (Wolins et al., 2006). […]

OSCC cell lines = test: shRNA-mediated CD36 depletion in orthotopic OSCC xenografts; assay type: in vivo, mouse; details: FaDu cells
Experimental: NOD scid gamma (NSG) (NOD.Cg-Prkdc^scid Il2rg^tm1Wjl/SzJ) mice were purchased from Charles River and crossed in-house. All mice were housed under a regimen of 12 h light/12 h dark cycles and SPF conditions, and all procedures were evaluated and approved by the CEEA (Ethical Committee for Animal Experimentation) from the Government of Catalunya. For establishing patient-derived tumour cells, tumours were implanted subcutaneously into NOD scid gamma mice immediately after tumour resection from the patient. Once the tumours had grown, they were collected, disaggregated, and tumour cells were FACS sorted and cultured as described below. For 5-bromo-2-deoxyuridine (BrdU) labelling experiments, mice were injected intraperitoneally with a single dose of 100 μg g^−1 BrdU (Invitrogen) and then analysed at 24 h. SCC intra-tongue injection was performed as previously described (Oskarsson et al., 2014; Nieman et al., 2011). […] Mice were monitored for the luciferase bioluminescent signal immediately after injection (T0) and once weekly thereafter with a Xenogen IVIS Imaging System-100 (Caliper Life Sciences). […] Data was quantified with the Living Image software version 4.4 (Caliper Life Sciences). Quantifications were calculated with unsaturated pixels. […]

Row | Compound | inoculated mice with lung metastasis (SCC25 tumour cells) [%] | primary tumour growth (SCC25 tumour cells) | size and frequency of the LN metastasis (SCC25 tumour cells) | percentage of CD36+ cells in culture (OSCC cells) | lung metastasis (ability to colonize the lungs) (OSCC cell lines)
1 | CCCCCCCCCCCCCCCC(=O)O [PA, palmitic acid] | 10 | without any effect | significantly boosted | robustly induced | –
2 | shRNACD36 #99: lentiviral shRNA targeting CD36 (Sigma Aldrich), SEQ ID NO: 2 (CCGACGTTAATCTGAAAGGA) | – | – | – | – | absent
